Measurements: article PMC3366211, “Leishmanicidal Activity of Nine Novel Flavonoids from Delphinium staphisagria” (The Scientific World Journal, 2012)
Like-named read-outs stand apart in the source and are kept apart here.

What was measured:
[1] = tested on: L. infantum axenic amastigote forms; experiment: Axenic amastigote forms assay; assay type: cell-based, Leishmania infantum; settings: for SI Axenic amastigote forms: IC50 macrophages/IC50 parasite form; for IC50: 48 hours per method (72 h); for number of times that compound SI exceeds the reference drug SI, Axenic amastigote forms: in brackets, reference Glucantime
Method: (§1) Axenic amastigotes forms of L. infantum and L. braziliensis were cultured following the methodology described previously by Moreno et al.. Thus, promastigote transformation to amastigotes was obtained after three days of culture in M199 medium (Invitrogen, Leiden, The Netherlands) supplemented with 10% heat-inactivated FCS, 1 g/L β-alanine, 100 mg/L L-asparagine, 200 mg/L sacarose, 50 mg/L sodium pyruvate, 320 mg/L malic acid, 40 mg/L fumaric acid, 70 mg/L succinic acid, 200 mg/L α-ketoglutaric acid, 300 mg/L citric acid, 1.1 g/L sodium bicarbonate, 5 g/L MES, 0.4 mg/L hemin, and 10 mg/L gentamicin pH 5.4 at 37°C. The effect of each compound against axenic amastigotes forms was tested at 48 hours using a Neubauer haemocytometric chamber. The antileishmanial effect is expressed as the IC50.

[2] = tested on: L. infantum promastigotes; experiment: Metabolite excretion (1H-NMR); assay type: cell-based, Leishmania infantum; settings: IC25, 96 hours, vs control
Method: Cultures of L. infantum and L. braziliensis promastigotes (initial concentration 5 × 10^5 cells/mL) received IC25 concentrations of the compounds (except for control cultures). After incubation for 96 hours at 28°C, the cells were centrifuged at 400 g for 10 min. Then supernatants were collected to determine the excreted metabolites using ^1H-NMR, and, eventually, chemical displacements were expressed in parts per million (ppm), using sodium 2,2-dimethyl-2-silapentane-5-sulphonate as the reference signal. The chemical displacements used to identify the respective metabolites were consistent with those described by Fernández-Becerra et al.

[3] = tested on: L. braziliensis intracellular amastigote forms; experiment: Intracellular amastigote forms assay in J774.2 macrophages; assay type: cell-based, Leishmania braziliensis; settings: for SI Intracellular amastigote forms / number of times that compound SI exceeds the reference drug SI, Intracellular amastigote forms: L. braziliensis; for SI Intracellular amastigote forms: IC50 macrophages/IC50 parasite form; for number of times that compound SI exceeds the reference drug SI, Intracellular amastigote forms: in brackets, reference Glucantime; for IC50: L. braziliensis in J774.2 macrophages, 72 h
Method: (§2) Cells were seeded at a density of 1 × 10^4 cells/well in 24-well microplates (Nunc) with rounded coverslips on the bottom and cultured for 2 days. Afterwards the cells were infected in vitro with promastigote forms of L. infantum and L. braziliensis, at a ratio of 10 : 1 during 24 hours. The non-phagocytosed parasites were removed by washing, and then the drugs (at 1, 10, 25, 50, 100 μM) were added. Macrophages with the drugs were incubated for 72 hours at 37°C in 5% CO2.
(§3) Drug activity was determined on the basis of number of amastigotes in treated and untreated cultures in methanol-fixed and Giemsa-stained preparations. The number of amastigotes was determined by analyzing 200 host cells distributed in randomly chosen microscopic fields. The antileishmanial effect is expressed as the IC50 values are the means of three separate determinations.

[4] = tested on: L. infantum promastigote forms; experiment: Promastigote forms assay; assay type: cell-based, Leishmania infantum; settings: for SI Promastigote forms: IC50 macrophages/IC50 parasite form; for IC50: 72 h; for times SI exceeds the reference drug SI (all forms): extracellular and intracellular forms; for times SI exceeds the reference drug SI (all forms) / number of times that compound SI exceeds the reference drug SI, Promastigote forms: reference Glucantime; for number of times that compound SI exceeds the reference drug SI, Promastigote forms: in brackets
Method: (§4) The compounds obtained were dissolved in the culture medium, at dosages of 100, 50, 25, 10, and 1 μM. The effects of each compound against promastigote forms were tested at 72 hours using a Neubauer haemocytometric chamber. The antileishmanial effect is expressed as the IC50, that is, the concentration required to give 50% inhibition, calculated by linear regression analysis from the Kc values of the concentrations employed.

[5] = tested on: L. infantum promastigotes; experiment: Ultrastructural alterations (TEM); assay type: cell-based, Leishmania infantum; settings: IC25, 96 hours
Method: (§5) The parasites were cultured at a density of 5 × 10^5 cells/mL in MTL medium, and the cultures contained drugs at the IC25 concentration.
(§6) After 96 hours, those cultures were centrifuged at 400 g for 10 min, and the pellets produced were washed in PBS and then mixed with 2% (v/v) P-formaldehyde-glutaraldehyde in 0.05 M cacodylate buffer (pH 7.4) for 4 hours at 4°C. After that, the pellets were prepared for TEM employing the technique of González et al..

[6] = tested on: L. infantum intracellular amastigote forms; experiment: Intracellular amastigote forms assay in J774.2 macrophages; assay type: cell-based, Leishmania infantum; settings: for SI Intracellular amastigote forms / number of times that compound SI exceeds the reference drug SI, Intracellular amastigote forms: L. infantum; for SI Intracellular amastigote forms: IC50 macrophages/IC50 parasite form; for number of times that compound SI exceeds the reference drug SI, Intracellular amastigote forms: in brackets, reference Glucantime; for IC50: L. infantum in J774.2 macrophages, 72 h
Method: as §2, §3

[7] = tested on: L. braziliensis axenic amastigote forms; experiment: Axenic amastigote forms assay; assay type: cell-based, Leishmania braziliensis; settings: for IC50: 48 hours per method (72 h); for SI Axenic amastigote forms: IC50 macrophages/IC50 parasite form; for number of times that compound SI exceeds the reference drug SI, Axenic amastigote forms: in brackets, reference Glucantime
Method: as §1

[8] = tested on: L. infantum; experiment: Infection assay in J774.2 macrophages; assay type: cell-based, Leishmania infantum; settings: IC25 concentration; for infection rate decrease, percentage of inhibition capacity: with respect to control
Method: (§7) J774.2 macrophage cells were grown under the same conditions expressed in amastigote forms assay during two days. Afterwards, the cells were infected in vitro with promastigote forms of L. infantum and L. braziliensis, at a ratio of 10 : 1. The drugs (IC25 concentrations) were added immediately after infection and were incubated for 12 hours at 37°C in 5% CO2. The nonphagocytosed parasites and the drugs were removed by washing, and then the infected cultures were grown for 10 days in fresh medium. Fresh culture medium was added every 48 h. The drug activity was determined from the percentage of infected cells and the number of amastigotes per infected cell (in treated and untreated cultures) in methanol-fixed and Giemsa-stained preparations. The percentage of infected cells and the mean number of amastigotes per infected cell were determined by analyzing 200 host cells distributed in randomly chosen microscopic fields. Values are the average of three separate determinations.

[9] = tested on: L. braziliensis promastigote forms; experiment: Promastigote forms assay; assay type: cell-based, Leishmania braziliensis; settings: for SI Promastigote forms: IC50 macrophages/IC50 parasite form; for IC50: 72 h; for number of times that compound SI exceeds the reference drug SI, Promastigote forms: in brackets, reference Glucantime
Method: as §4

[10] = tested on: L. braziliensis promastigotes; experiment: Ultrastructural alterations (TEM); assay type: cell-based, Leishmania braziliensis; settings: IC25, 96 hours
Method: as §5, §6

[11] = tested on: L. braziliensis; experiment: Infection assay in J774.2 macrophages; assay type: cell-based, Leishmania braziliensis; settings: IC25 concentration; for infection rate decrease, percentage of inhibition capacity: with respect to control
Method: as §7

[12] = tested on: J774.2 macrophages; experiment: Cytotoxicity test for macrophages (flow cytometry); assay type: cell-based, BALB/c rat; settings: J774.2 macrophages after 72 h of culture, read-out: Macrophage toxicity IC50
Method: J774.2 macrophages (ECACC number 91051511) were originally obtained from a tumour in a female BALB/c […] in 1968. The cytotoxicity test for macrophages was performed according to the methodology of González et al.. After 72 hours of treatment, cell viability was determined by flow cytometry. Thus, 100 μL/well of propidium iodide solution ([…]) was added and incubated for 10 min at 28°C in darkness. Afterwards, 100 μL/well of fluorescein diacetate (100 ng/mL) was added and incubated under the same conditions. Finally, the cells were recovered by centrifugation at 400 g for 10 min and the precipitate washed with phosphate buffered saline (PBS). Flow cytometric analysis was performed with a FACSVantage flow cytometer (Becton Dickinson). The percentage viability was calculated in comparison with the control culture. The IC50 was calculated using linear regression analysis from the Kc values of the concentrations employed.

| Molecule | SI Axenic amastigote forms [1] | IC50 ([1]; Leishmania infantum) [µM] | number of times that compound SI exceeds the reference drug SI, Axenic amastigote forms [1] | change in excreted catabolites [2] | SI Intracellular amastigote forms [3] | number of times that compound SI exceeds the reference drug SI, Intracellular amastigote forms [3] | IC50 ([3]; Leishmania braziliensis) [µM] | SI Promastigote forms [4] | IC50 ([4]; Leishmania infantum) [µM] | times SI exceeds the reference drug SI (all forms) [4] | number of times that compound SI exceeds the reference drug SI, Promastigote forms [4] | SI Intracellular amastigote forms [6] | number of times that compound SI exceeds the reference drug SI, Intracellular amastigote forms [6] | decrease of average number of amastigotes per infected macrophage cell [8] [%] | infection rate decrease, percentage of inhibition capacity [8] [%] | SI Promastigote forms [9] | number of times that compound SI exceeds the reference drug SI, Promastigote forms [9] | decrease of average number of amastigotes per infected macrophage cell [11] [%] | infection rate decrease, percentage of inhibition capacity [11] [%] | SI Axenic amastigote forms [7] | also measured |
| --- | --- | --- | --- | --- | --- | --- | --- | --- | --- | --- | --- | --- | --- | --- | --- | --- | --- | --- | --- | --- | --- |
| CC(=O)O[C@H]1[C@H](Oc2c(-c3ccc(O)cc3)oc3cc(O[C@@H]4O[C@H](CO)[C@@H](O)[C@H](O)[C@H]4O)cc(O)c3c2=O)O[C@H](CO)[C@@H](O)[C@@H]1O [Compound 5, 2′′-acetylpaeonoside] | 33.6 | 29.8 ± 2.2 | 56 | an increase in the excretion of succinate, and acetate, followed by malate, alanine, lactate and ethanol | 20.0 | 40 | 50.9 ± 6.2 | 40.7 | 24.6 ± 3.7 | more than 50 times | 51 | 26.9 | 54 | 45 | 79 | 29.3 | 49 | 72 | 79 | – | ultrastructural alterations by TEM [5]: produced similar effects; IC50 ([6]; Leishmania infantum): 37.2 ± 3.5 µM; IC50 ([7]; Leishmania braziliensis): 19.4 ± 0.9 µM; IC50 ([9]; Leishmania braziliensis): 34.1 ± 6.6 µM; ultrastructural alterations by TEM [10]: no significant changes compared to the control |
| CC(=O)OC[C@H]1O[C@@H](Oc2c(-c3ccc(OC(C)=O)c(OC(C)=O)c3)oc3cc(O[C@@H]4O[C@@H](C)[C@H](OC(C)=O)[C@@H](OC(C)=O)[C@H]4OC(C)=O)cc(OC(C)=O)c3c2=O)[C@H](OC(C)=O)[C@@H](OC(C)=O)[C@@H]1OC(C)=O [Compound 9, petiolaroside decacetate] | 22.8 | 21.5 ± 0.9 | 38 | – | 23.3 | 47 | 21 ± 1.3 | 21.5 | 22.8 ± 1.7 | < 50 times | 27 | 15.8 | 32 | – | – | 15.2 | 25 | – | – | 19.9 | IC50 ([6]; Leishmania infantum): 31 ± 1.7 µM; IC50 ([7]; Leishmania braziliensis): 24.6 ± 1.3 µM; number of times that compound SI exceeds the reference drug SI, Axenic amastigote forms [7]: 40; IC50 ([12]; Mus musculus, J774.2, 72 h): 490 ± 22.4 µM; IC50 ([9]; Leishmania braziliensis): 32.3 ± 3.3 µM |
| meglumine antimoniate [Glucantime, reference compound] | 0.6 | – | – | – | – | – | – | 0.8 | – | – | – | 0.5 | – | 12 | 63 | 0.6 | – | 33 | 58 | 0.5 | IC50 [1]: 24.2 ± 2.6 µM; IC50 [3]: 31.1 ± 3 µM; IC50 [4]: 18 ± 3.1 µM; IC50 [6]: 30 ± 2.7 µM; IC50 [7]: 30.4 ± 6.1 µM; IC50 [12]: 15.2 ± 1.3 µM; IC50 [9]: 25.6 ± 1.6 µM |
| paeonoside [Compound 4] | 37.2 | – | 62 | an increase in the excretion of succinate, and acetate, followed by malate, alanine, lactate and ethanol | 30.6 | 61 | – | 39.8 | – | more than 50 times | 50 | 31.8 | 64 | 37 | 77 | 35.6 | 59 | 61 | 68 | 42.2 | IC50 [1]: 26.9 ± 1.4 µM; IC50 [3]: 32.7 ± 2.1 µM; IC50 [4]: 25.1 ± 1.9 µM; ultrastructural alterations by TEM [5]: many of the parasites appeared dead, while another showed pronounced vacuolization; IC50 [6]: 31.4 ± 2 µM; IC50 [7]: 23.7 ± 2.1 µM; number of times that compound SI exceeds the reference drug SI, Axenic amastigote forms [7]: 84; IC50 [12]: > 1000 µM; IC50 [9]: 28.1 ± 5.2 µM; ultrastructural alterations by TEM [10]: expansion of the kinetoplast, which appeared swollen |
